# Results as given in patent publication US8378117B2 (priority 2005, dated 2013).
# pEC50, pIC50: −log10 of the molar value.
# Legend:
# CB1 receptor [1] = target: T1, CB1 receptor (Homo sapiens, UniProt P21554); test: Binding assay for CB1 agonists or inverse agonists (SK-N-MC membranes, [3H]-CP-55,940); conditions: for CB1 receptor binding percent inhibition: test concentration 0.2 μM (footnote 2), 0.2 µM
# T1 construct: expressed in transfected cells
# Outline: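 Membranes from SK-N-MC cells stably expressing human CB1 incubated with compound and [3H]-CP-55,940 ([…]) for 90 min at 30° C in Tris-HCl pH 7.5, MgCl2, EDTA, fatty-acid-free BSA. Non-specific binding defined with 10 uM WIN 55,212; filtration, scintillation count; IC50 by linear regression.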
# CB2 receptor [2] = target: T2, CB2 receptor (Homo sapiens, UniProt P34972); test: Binding assay for CB2 agonists or inverse agonists (SK-N-MC membranes, [3H]-CP-55,940); conditions: for CB2 receptor binding percent inhibition: test concentration 0.2 μM (footnote 2), 0.2 µM
# T2 construct: expressed in transfected cells
# T2 sequence (P34972 whole entry): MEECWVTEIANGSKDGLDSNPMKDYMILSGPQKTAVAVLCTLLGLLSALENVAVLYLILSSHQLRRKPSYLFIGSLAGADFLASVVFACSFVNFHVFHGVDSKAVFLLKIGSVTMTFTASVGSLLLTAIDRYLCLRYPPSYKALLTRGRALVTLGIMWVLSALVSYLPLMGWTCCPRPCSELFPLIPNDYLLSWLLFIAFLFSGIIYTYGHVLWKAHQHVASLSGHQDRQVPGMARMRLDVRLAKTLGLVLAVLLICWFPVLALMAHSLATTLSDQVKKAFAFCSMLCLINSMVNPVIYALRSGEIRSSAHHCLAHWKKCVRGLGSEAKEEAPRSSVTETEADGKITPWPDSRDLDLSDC
# Outline: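 Membranes from SK-N-MC cells stably expressing human CB2 were incubated with radioligand and test compounds for 90 min at 30 °C in Tris-HCl buffer, pH 7.5, with MgCl2, EDTA and fatty-acid-free BSA. Filter-bound radioactivity was counted; IC50 was derived by linear regression of percent inhibition.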
# CB1 receptor [3] = target: T1, CB1 receptor; test: Modified functional cell-based assay (Beta-Glo luminescence), CB1 receptor; conditions: CB1 EC50 (Receptor Functional Activity), one sample per compound, Cpd 237 n=3
# Procedure: (§1) Additional functional activity studies were performed with minor modifications. Beta galactosidase activity was quantified using the luminescent Beta-Glo Assay System (Promega Corp. Madison, Wis.) and an Orion Microplate Luminometer (Berthold Detection Systems, Oak Ridge, Tenn.). The EC50 values were calculated using GraphPad Prism and a four parameter logistic equation.
# (§2) The functional activity EC50 value for compounds tested (shown in Table 8) were obtained from studies in which varying compound concentrations were used. With the exception of Cpd 237 (n=3), one sample for each compound was tested.
# CB2 receptor [4] = target: T2, CB2 receptor; test: Modified functional cell-based assay (Beta-Glo luminescence), CB2 receptor; conditions: CB2 EC50 (Receptor Functional Activity), one sample per compound, Cpd 237 n=3
# Procedure: as §1, §2
# CB1 receptor [5] = target: T1, CB1 receptor; test: cell-based; conditions: CB1 Receptor Functional Agonist EC50, SK-N-MC cells, forskolin induced β-galactosidase activity
# Outline: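 SK-N-MC cells stably co-expressing human CB1 and a CRE-β-galactosidase reporter; forskolin-induced β-gal activity measured after compound treatment, as % of vehicle-treated cells (100%). EC50 by linear regression from concentration series; otherwise % change at a single concentration.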
# CB2 receptor [6] = target: T2, CB2 receptor; test: Functional cell-based assay, CB2 receptor mediated change in CRE β-gal expression (SK-N-MC cells); conditions: CB2 Receptor Functional Agonist EC50, forskolin induced β-galactosidase activity, SK-N-MC cells
# Source text: The CB1 and CB2 receptors are G-protein coupled receptors (GPCR), which influence cell function via the Gi-protein. These receptors modulate the activity of intracellular adenylate cyclase, which in turn produces the intracellular signal messenger cyclic-AMP (cAMP).
# At baseline, or during non-ligand bound conditions, these receptors are constitutively active and tonically suppress adenylate cyclase activity. The binding of an agonist causes further receptor activation and produces additional suppression of adenylate cyclase activity. The binding of an inverse agonist inhibits the constitutive activity of the receptors and results in an increase in adenylate cyclase activity.
# By monitoring intracellular adenylate cyclase activity, the ability of compounds to act as agonists or inverse agonists can be determined.
# Test compounds were evaluated in SK-N-MC cells which, using standard transfection procedures, were stably transfected with human cDNA for pcDNA3-CRE β-gal and pcDNA3 CB1 receptor (human) or pcDNA3 CB2 receptor (human). By expressing CRE β-gal, the cells produced β-galactosidase in response to CRE promoter activation by cAMP. Cells expressing CRE β-gal and either the human CB1 or CB2 receptor will produce less β-galactosidase when treated with a CB1/CB2 agonist and will produce more β-galactosidase when treated with a CB1/CB2 inverse agonist.
# The cells were grown in 96-well plates under standard cell culture conditions at 37° C. in a 5% CO2 atmosphere and culture media (wherein the media was supplemented with 2 mM L-glutamine, […] sodium pyruvate, 10% FBS (fetal bovine serum) and antibiotics).
# For cells expressing CRE β-gal and the CB2 receptor, CB2 agonists reduced β-galactosidase activity in a dose-dependent manner and CB2 inverse agonists increase β-galactosidase activity in a dose-dependent manner.
# The change in forskolin induced β-galactosidase activity was determined by setting a vehicle treated cell's activity value at 100% and expressing the β-galactosidase activity measured in a corresponding compound treated cell as a percent of the vehicle treated cell activity.
# The EC50 value for functional activity for compounds tested was calculated by linear regression and was obtained from studies in which varying compound concentrations were used.
# Male CD-1 mice [7] = test: Oil of mustard induced colitis model; assay type: in vivo; conditions: Therapeutic Regimen, 5 mg/kg oral; 5 mg/kg
# Source text: In the distal colon, the oil of mustard colitis model is characterized by a discontinuous pattern of mucosal epithelial damage, submucosal edema, infiltration of inflammatory cells (including macrophages, neutrophils and lymphocytes) into the mucosa and submucosa, increased wet weight of the colon, shrinkage of the colon length, diarrhea and apparent inflammation (see, Kimball E. S., Palmer J. M., D'Andrea M. R., Homby P. J. and Wade P. R., Acute colitis induction by oil of mustard results in later development of an IBS-like accelerated upper GI transit in mice, Am. J Physiol. Gastrointest. Liver Physiol., 2005, 288: G 1266-1273).
# Male CD-1 mice (Charles River Laboratories, Kingston, N.C.) (9-11 weeks old) and fresh oil of mustard (OM) (allyl isothiocyanate, 98% purity, Sigma-Aldrich St. Louis, Mo.) were used.
# The mice (9 per treatment group) were briefly anesthetized with ketamine/xylasine (Sigma, St. Louis, Mo.) and a solution of 0.5% OM in 30% ethanol (50 μL) was administered intracolonically (to a depth of 4 cm) via syringe (equipped with a ball-tipped 22 G needle).
# A test compound was orally administered one day prior to colitis induction for assessing a prophylactic regimen or one day post-induction for assessing a therapeutic regimen. A test compound was orally administered daily thereafter. Two days after OM administration, the last test compound dose was administered.
# Three days after OM administration, the animals were sacrificed. The colons were resected, examined for signs of inflammation, weighed after removing fecal contents and the length from the aboral end of the cecum to the anus was measured. The fecal contents were examined for signs of diarrhea. The distal colon between the 1st and the 4th centimeter was removed and placed in 10% neutral buffered formalin for histological analysis.
# The macroscopic observations of colon inflammation (a measure of colon damage), colon weight and length and stool consistency and appearance were assigned a score and used to evaluate colitis severity.
# The four observation scores for each colon were combined, whereby a combined score of 0 represents a normal colon and a combined score of 15 represents a maximally affected colon. Statistical analyses were performed in Graphpad Prism 4.0 using ANOVA.
# Histological analyses of tissues consisted of staining paraffin-embedded tissue sections with hematoxylin-eosin dye. The tissues were examined using light microscopy by an investigator who was blinded to the sample groups.
# The microscopic observations of epithelial damage, cellular infiltration and damage or alteration of smooth muscle architecture (a measure of muscle damage) were assigned a score and used to evaluate colitis severity.
# The scores for each colon were combined, whereby a combined score of 0 represents a normal colon and a combined score of 9 represents a maximally affected colon. Statistical analyses were performed in Graphpad Prism 4.0 using ANOVA.
# The Macroscopic Score and Microscopic Score results for each treatment group in the prophylactic and therapeutic regimens were each combined into a mean score and expressed as % inhibition of colitis (% Inh). Test (#) represents the number of experiments at each dose level.
# Male CD-1 mice [8] = test: Postoperative inflammatory ileus, microscopic myeloperoxidase histological examination; assay type: in vivo; conditions: Surgical Manipulation, dose 1 mg/kg, 24 hr post-laparotomy, mean ± SE
# Procedure: (§3) Male CD-1 mice were anesthetized by inhaled isoflurane and prepared for surgery. The abdomen was shaved of hair and treated with antiseptic solution. The animal was then covered with a surgical drape, leaving the abdomen exposed. A mid-line laparotomy was performed, and the entire small intestine was exteriorized onto the sterile drape. Using two moistened, sterile, cotton-tipped applicators, the small intestine was then gently compressed along its length from the ligament of Treitz to the ileo-cecal junction. The small intestine was then returned to the abdominal cavity and the incision closed by two layers of sutures.
# (§4) Age-matched mice were randomly assigned to groups (6 animals per group) and injected intraperitoneally (i.p.) with “vehicle” (a mixture of 5% ethanol/5% Tween80/90% of 5% dextran in water w/v) containing various doses of a test compound 1 hr prior to laparotomy. The second group was injected intraperitoneally with vehicle. The third group was administered intragastrically (1 mg/kg) a mixture (1 mg/mL) of dexamethasone in 20% hydroxypropyl methyl dextran in water, once per day for two days prior to surgery and 5 hrs post-laparotomy. The fourth group received no intervention and served as naïve controls.
# Microscopic histological examination was performed on harvested tissues 24 hr post-laparotomy. […] Hanker-Yates reagent (Polysciences Inc.) forms an insoluble, blue-black polymer in the presence of hydrogen peroxide and peroxidase enzyme activity. Segments of mid small bowel were collected from the centrifuge tubes described in the previous section. Whole mounts of the muscle layer were prepared by opening the tube of bowel along the mesenteric border and pinning the tissue flat in a Sylgard™ lined Petri dish with the mucosal surface facing upward. The tissue was stretched to 1.5 times its length and 2.5 times its width, and the mucosa removed by fine dissection. The remaining muscularis whole mounts were then fixed with 100% ethanol for 45 min, washed 3 times with PBS, and incubated for 20 min in PBS containing 0.1% hydrogen peroxide and 1 mg/ml Hanker-Yates reagent (Polysciences, Inc). The reagent is polymerized in the presence of hydrogen peroxide and peroxidase activity to form a blue-black deposit. Following a second wash with PBS, the whole mounts were mounted on glass slides, cover-slipped, and viewed on an optical microscope. Myeloperoxidase containing leukocytes were counted in 6 to 8 adjacent 200× optical fields, and the mean cell counts were calculated and recorded.
# The presence of myeloperoxidase (MPO) positive immune cells in the intestinal muscularis is rare in normal animals.
# Male CD-1 mice [9] = test: Postoperative inflammatory ileus, upper gastrointestinal transit (FITC-dextran, Geometric Center); assay type: in vivo; conditions: Surgical Manipulation, dose 1 mg/kg, 24 hr post-laparotomy, mean ± SE; scale 1 to 15
# Procedure: as §3, §4
# Upper gastrointestinal transit was measured 24 hr post-laparotomy. Mice were fed a test meal consisting of 150 μL of FITC-dextran solution (5 mg/mL of 70,000 molecular weight dextran conjugated to fluorescein-isothiocyanate in 0.5% hydroxypropyl methylcellulose/deionized water) administered intragastrically by an 18 gauge feeding tube. Following oral administration of the FITC-dextran test meal, animals were returned to their home cages. Following a 45 min test period, mice were euthanized by isoflurane overdose and exsanguination. The entire gastrointestinal tract from the lower esophageal sphincter to the terminal colon was removed. The bowel segments were opened along the mesenteric border. The tissue and luminal contents of the stomach, 10 equal segments of small intestine, the cecum, and 3 equal segments of colon were placed in individual Eppendorf tubes containing 1 ml of PBS. The tissue was vigorously mixed on a tabletop vortex, and solid materials were pelletized by centrifugation. Aliquots of the cleared supernatant were read in duplicate on a 96-well fluorescence plate reader to quantify the magnitude of the fluorescent signal in each segment of bowel.
# These values were used to calculate the Geometric Center (REF), which is defined as the weighted average distribution of the fluorescent signal along the gastrointestinal tract: GC=Σ(% of total fluorescent signal per segment×segment number)/100,
# Higher GC values represent faster rates of transit on scale of 1 to 15.
# Surgical manipulation of the small bowel leads to a significant delay in gastrointestinal transit, going from a Geometric Center of 8.4 in normal mice to 3.3 in vehicle treated animals.
# T1 sequence (P21554 whole entry): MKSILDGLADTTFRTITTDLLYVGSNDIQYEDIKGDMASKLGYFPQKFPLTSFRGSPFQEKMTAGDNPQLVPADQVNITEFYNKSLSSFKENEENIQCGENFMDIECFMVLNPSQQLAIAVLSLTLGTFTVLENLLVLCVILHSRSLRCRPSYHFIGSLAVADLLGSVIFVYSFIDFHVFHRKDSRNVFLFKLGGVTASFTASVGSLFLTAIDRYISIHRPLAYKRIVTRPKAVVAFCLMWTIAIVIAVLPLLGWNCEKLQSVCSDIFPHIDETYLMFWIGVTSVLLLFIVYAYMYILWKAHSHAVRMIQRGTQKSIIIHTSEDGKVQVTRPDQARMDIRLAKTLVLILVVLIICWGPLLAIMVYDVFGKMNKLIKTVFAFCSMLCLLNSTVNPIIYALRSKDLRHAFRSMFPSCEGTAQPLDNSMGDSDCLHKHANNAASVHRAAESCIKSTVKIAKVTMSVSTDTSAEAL
Compound,CB1 receptor binding percent inhibition (CB1 receptor [1]),CB2 receptor binding percent inhibition (CB2 receptor [2]),pEC50 (CB1 receptor [3]),pEC50 (CB2 receptor [4]),"pIC50 (CB1 receptor [1]; Cannabinoid CB1 Receptor Binding IC50, calculated by linear regression from percent inhibition at various test concentrations)","pIC50 (CB2 receptor [2]; Cannabinoid CB2 Receptor Binding IC50, calculated by linear regression from percent inhibition at various test concentrations)",pEC50 (CB1 receptor [5]),pEC50 (CB2 receptor [6]),"% Inh (Macro), % inhibition of colitis, macroscopic score (Male CD-1 mice [7]) [%]",MPO-Positive Cells (Per 200× Optical Field) (Male CD-1 mice [8]),Geometric Center (upper gastrointestinal transit) (Male CD-1 mice [9])
"C[C@H](NS(=O)(=O)/C=C/c1n[nH]c2c1CCCCC2Cc1cccc(F)c1)c1ccccc1 (single isomer, unassigned) [Cpd 233, (2E)-2-[(8S*)-8-(3-fluoro-benzyl)-1,4,5,6,7,8-hexahydro-cycloheptapyrazol-3-yl]-ethenesulfonic acid [(1S)-1-phenyl-ethyl]-amide]",^(2)0%,^(2)20%,~5.36,~5.89,,,,,,,
"O=C(N[C@@H](CO)c1ccccc1)c1n[nH]c2c1CCCCC2Cc1cccc(Cl)c1 (stereo in doubt) [Cpd 229, (8R*)-8-(3-chloro-benzyl)-1,4,5,6,7,8-hexahydro-cycloheptapyrazole-3-carboxylic acid [(1R)-2-hydroxy-1-phenyl-ethyl]-amide]",73%,95%,,,7.22,7.70,7.22,8.70,56.9 ± 11.6,,
"C[C@@H]1C[C@H]2[C@@H]3CCC4=CC(=O)C=C[C@]4(C)[C@@]3(F)[C@@H](O)C[C@]2(C)[C@@]1(O)C(=O)CO [dexamethasone, reference compound]",,,,,,,,,,29.8 ± 3.9,6.0 ± 0.14
